Measurements: article PMC11882969 (Nature Communications, 2025)
Where “and” joins values, the source holds several entries; their conditions need not be identical. Equal entries are not always repeated. Where two headings read alike, the source gives them in different places.

Assays:
[1] = target: T1, CB1 (rCB1) (Rattus norvegicus, UniProt P20272); assay: Radioligand competition binding, [3H]-CP-55,940, rat brain membranes; settings: for pKi [95% CI]: rCB1; for Ki: read-out: Ki [95% CI], rCB1, [3H]-CP-55,940
[2] = target: T1, CB1 (rCB1); assay: Single-point radioligand displacement screen; assay type: binding; settings: 10 µM, 1 µM or 300 nM by cell colour (not visible)
[3] = target: hCB1 (Homo sapiens, UniProt P21554); assay: bioSensAll ebBRET signaling profiling, hCB1; assay type: cell-based; parameters: host or cells: HEK293SL cells, transient PEI transfection; settings: for Barr2+GRK2 hCB1 response: Barr2+GRK2 biosensor; for Gi1 hCB1 / GoB hCB1: single replicate values, FigS6a; for EC50: read-out: EC50 [95% CI]; for Emax: normalized to CP-55,940; for Gi1 hCB1 response: Gi1 biosensor
[4] = read-out: Emax [95% CI], hCB1 Gi1
[5] = read-out: Emax [95% CI], hCB1 GoB

T1 sequence (P20272 whole entry): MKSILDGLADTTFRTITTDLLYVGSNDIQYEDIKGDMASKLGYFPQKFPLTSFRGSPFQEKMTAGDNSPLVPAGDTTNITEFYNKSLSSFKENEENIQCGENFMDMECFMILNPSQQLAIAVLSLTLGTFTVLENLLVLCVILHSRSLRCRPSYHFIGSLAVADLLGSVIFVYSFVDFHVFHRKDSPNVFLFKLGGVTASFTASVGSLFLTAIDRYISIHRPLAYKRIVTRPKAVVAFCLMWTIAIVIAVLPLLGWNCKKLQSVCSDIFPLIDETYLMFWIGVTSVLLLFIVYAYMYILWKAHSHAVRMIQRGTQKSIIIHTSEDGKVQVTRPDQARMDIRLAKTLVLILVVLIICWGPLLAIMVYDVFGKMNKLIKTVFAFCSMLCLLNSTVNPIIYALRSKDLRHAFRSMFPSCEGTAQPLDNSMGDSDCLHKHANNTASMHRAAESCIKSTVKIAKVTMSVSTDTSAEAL
Chain of hCB1 (P21554 whole entry): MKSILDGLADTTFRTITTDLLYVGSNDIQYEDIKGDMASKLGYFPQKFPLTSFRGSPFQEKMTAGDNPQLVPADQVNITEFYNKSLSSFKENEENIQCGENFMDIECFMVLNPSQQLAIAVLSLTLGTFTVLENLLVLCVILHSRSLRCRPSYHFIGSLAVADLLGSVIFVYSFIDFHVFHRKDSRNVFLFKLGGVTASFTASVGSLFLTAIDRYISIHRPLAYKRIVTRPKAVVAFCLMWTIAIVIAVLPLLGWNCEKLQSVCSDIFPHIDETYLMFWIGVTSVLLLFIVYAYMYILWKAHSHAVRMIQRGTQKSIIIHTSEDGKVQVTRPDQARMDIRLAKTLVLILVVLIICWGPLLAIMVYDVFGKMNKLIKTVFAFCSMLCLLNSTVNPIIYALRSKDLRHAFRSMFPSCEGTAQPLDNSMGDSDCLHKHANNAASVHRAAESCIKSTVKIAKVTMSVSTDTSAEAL

## Cc1nn(Cc2ccc(Cl)cc2)c(C)c1C(=O)OCC1CSc2ccccc2O1 (centres unmarked) [‘5463]
[1]
  pKi [95% CI]: 6.1 [5.8 – 6.4]
  Ki: 825 nM
[2]
  % 1H-CP-55,940 displacement (mean) from single point screen: 81.83%
[3]; Log [Compound] (M) -4.22186
  Barr2+GRK2 hCB1 response: -7.036
  Gi1 hCB1: 28.0981
  GoB hCB1: 24.5257
[3]; Log [Compound] (M) -4.63927
  Barr2+GRK2 hCB1 response: -40.2196
  Gi1 hCB1: 21.0665
  GoB hCB1: 14.8206
[3]; Log [Compound] (M) -5.05788
  Barr2+GRK2 hCB1 response: -35.4335
  Gi1 hCB1: 16.6796
  GoB hCB1: 10.4802
[3]; Log [Compound] (M) -5.47381
  Barr2+GRK2 hCB1 response: -41.4959
  Gi1 hCB1: 14.3358
  GoB hCB1: 11.0879
[3]; Log [Compound] (M) -5.89285
  Barr2+GRK2 hCB1 response: -45.6439
  Gi1 hCB1: 7.716
  GoB hCB1: 6.331
[3]; Log [Compound] (M) -6.31878
  Barr2+GRK2 hCB1 response: -47.8774
  Gi1 hCB1: 3.392
  GoB hCB1: 2.3203
[3]; Log [Compound] (M) -6.72585
  Barr2+GRK2 hCB1 response: -53.9398
  Gi1 hCB1: -0.6618
  GoB hCB1: -6.013
[3]; Log [Compound] (M) -7.14267
  Barr2+GRK2 hCB1 response: -43.7294
  Gi1 hCB1: -2.705
  GoB hCB1: -6.777
[3]; Log [Compound] (M) -7.55284
  Barr2+GRK2 hCB1 response: -45.9629
  Gi1 hCB1: -2.958
  GoB hCB1: -3.8083
[3]; Log [Compound] (M) -8
  Barr2+GRK2 hCB1 response: -54.2588
  Gi1 hCB1: -2.752
  GoB hCB1: -8.791
[3]; Log [Compound] (M) -8.22186
  Barr2+GRK2 hCB1 response: -7.036
  Gi1 hCB1: 6.512
  GoB hCB1: 0.4626
[3]; Log [Compound] (M) -8.39794
  Barr2+GRK2 hCB1 response: -23.3088
  Gi1 hCB1: -3.021
  GoB hCB1: -7.2806
[3]; Log [Compound] (M) -8.68787
  Barr2+GRK2 hCB1 response: -41.1769
  Gi1 hCB1: 0.4468
  GoB hCB1: -0.5617
[3]; Log [Compound] (M) -9.15521
  Barr2+GRK2 hCB1 response: -53.6207
  Gi1 hCB1: -1.422
  GoB hCB1: -2.124
[3]; Log [Compound] (M) -9.61989
  Barr2+GRK2 hCB1 response: -38.9433
  Gi1 hCB1: -0.7093
  GoB hCB1: -5.475
[3]; Log [Compound] (M) -10.0969
  Barr2+GRK2 hCB1 response: -52.3444
  Gi1 hCB1: -1.0102
  GoB hCB1: -3.201
[3]; Log [Compound] (M) -10.5529
  Barr2+GRK2 hCB1 response: -37.0289
  Gi1 hCB1: -0.3926
  GoB hCB1: -3.652
[3]; Log [Compound] (M) -11.0177
  Barr2+GRK2 hCB1 response: -49.4727
  Gi1 hCB1: -0.8518
  GoB hCB1: -4.381
[3]; Log [Compound] (M) -11.4949
  Barr2+GRK2 hCB1 response: -43.0913
  Gi1 hCB1: -1.279
  GoB hCB1: -3.965
[3]; Log [Compound] (M) -11.9208
  Barr2+GRK2 hCB1 response: -24.266
  Gi1 hCB1: -2.99
  GoB hCB1: -2.853
[3]; Log [Compound] (M) -12.3979
  Barr2+GRK2 hCB1 response: -7.993
  Gi1 hCB1: -0.25
  GoB hCB1: -4.034
[3]; Log [Compound] (M) -12.8861
  Barr2+GRK2 hCB1 response: -18.5227
  Gi1 hCB1: -2.879
  GoB hCB1: -4.451
[3]; Log [Compound] (M) -13.3979
  Barr2+GRK2 hCB1 response: 10.832
[3]; Log [Compound] (M) -13
  Gi1 hCB1: -0.7885
  GoB hCB1: -4.468
[3]; Log [Compound] (M) cell empty
  Gi1 hCB1: 0.7319
  GoB hCB1: -2.437
[3]; hCB1 Gi1
  pEC50 [95% CI]: 5.3 [3.4 – 5.8]
  EC50: 4940 nM
[3]; hCB1 GoB
  pEC50 [95% CI]: 5.1 [6.0]
  EC50: 7470 nM
[3]; [4]
  Emax: 31%
[3]; [5]
  Emax: 32%

## Cc1cc(C(=O)NC(c2ccccc2)c2ccco2)nn1-c1cccc(C#N)c1 (centres unmarked) [‘12565]
[1]
  pKi [95% CI]: 6.5 [6.3 – 6.7]
  Ki: 301 nM
[2]
  % 1H-CP-55,940 displacement (mean) from single point screen: 61.12%
[3]; Log [Compound] (M) -4.22186
  Gi1 hCB1 response: 51.3091
  Gi1 hCB1: 25.3414
  GoB hCB1: 15.9048
[3]; Log [Compound] (M) -4.63927
  Gi1 hCB1 response: 50.5034
  Gi1 hCB1: 29.288
  GoB hCB1: 18.0268
[3]; Log [Compound] (M) -5.05788
  Gi1 hCB1 response: 44.5052
  Gi1 hCB1: 28.8564
  GoB hCB1: 28.8528
[3]; Log [Compound] (M) -5.47381
  Gi1 hCB1 response: 43.9457
  Gi1 hCB1: 27.1451
  GoB hCB1: 28.2953
[3]; Log [Compound] (M) -5.89285
  Gi1 hCB1 response: 42.849
  Gi1 hCB1: 25.0947
  GoB hCB1: 22.0012
[3]; Log [Compound] (M) -6.31878
  Gi1 hCB1 response: 33.2921
  Gi1 hCB1: 21.0402
  GoB hCB1: 26.4251
[3]; Log [Compound] (M) -6.72585
  Gi1 hCB1 response: 46.4524
  Gi1 hCB1: 17.7873
  GoB hCB1: 22.6665
[3]; Log [Compound] (M) -7.14267
  Gi1 hCB1 response: 19.6618
  Gi1 hCB1: 12.2681
  GoB hCB1: 15.689
[3]; Log [Compound] (M) -7.55284
  Gi1 hCB1 response: 13.0593
  Gi1 hCB1: 6.888
  GoB hCB1: 4.557
[3]; Log [Compound] (M) -8
  Gi1 hCB1 response: 11.2688
  Gi1 hCB1: 2.772
  GoB hCB1: 1.9857
[3]; Log [Compound] (M) -8.22186
  Gi1 hCB1 response: -3.794
  Gi1 hCB1: 1.492
  GoB hCB1: -4.416
[3]; Log [Compound] (M) -8.39794
  Gi1 hCB1 response: -8.2031
  Gi1 hCB1: 0.9061
  GoB hCB1: -0.9096
[3]; Log [Compound] (M) -8.68787
  Gi1 hCB1 response: -4.197
  Gi1 hCB1: 1.4611
  GoB hCB1: -4.902
[3]; Log [Compound] (M) -9.15521
  Gi1 hCB1 response: -12.5675
  Gi1 hCB1: 0.4436
  GoB hCB1: -2.744
[3]; Log [Compound] (M) -9.61989
  Gi1 hCB1 response: -10.195
  Gi1 hCB1: -1.406
  GoB hCB1: -3.949
[3]; Log [Compound] (M) -10.0969
  Gi1 hCB1 response: -5.294
  Gi1 hCB1: 0.8444
  GoB hCB1: -5.531
[3]; Log [Compound] (M) -10.5529
  Gi1 hCB1 response: 14.9617
  Gi1 hCB1: -0.3889
  GoB hCB1: 0.1334
[3]; Log [Compound] (M) -11.0177
  Gi1 hCB1 response: -2.317
  Gi1 hCB1: -1.067
  GoB hCB1: 0.2053
[3]; Log [Compound] (M) -11.4949
  Gi1 hCB1 response: 8.247
  Gi1 hCB1: 0.2894
  GoB hCB1: -1.809
[3]; Log [Compound] (M) -11.9208
  Gi1 hCB1 response: -0.5263
  Gi1 hCB1: -1.221
  GoB hCB1: -1.251
[3]; Log [Compound] (M) -12.3979
  Gi1 hCB1 response: -10.9113
  Gi1 hCB1: 0.4282
  GoB hCB1: 0.1334
[3]; Log [Compound] (M) -12.8861
  Gi1 hCB1 response: -6.234
  Gi1 hCB1: 1.43
  GoB hCB1: -3.211
[3]; Log [Compound] (M) -13, individual replicate values
  Gi1 hCB1 response: 1.98 and -17.5585
[3]; Log [Compound] (M) -13
  Gi1 hCB1: 1.507 and -0.6201
  GoB hCB1: -3.409 and -2.942
[3]; hCB1 Gi1
  pEC50 [95% CI]: 7.0 [6.9 – 7.1]
  EC50: 104 nM
[3]; hCB1 GoB
  pEC50 [95% CI]: 7.4 [7.1 – 7.6]
  EC50: 44.8 nM
[3]; hCB1 Gz
  pEC50 [95% CI]: 7.3 [6.9 – 7.7]
  EC50: 54.6 nM
[3]; [4]
  Emax: 28%
[3]; [5]
  Emax: 25%
[3]; read-out: Emax [95% CI], hCB1 Gz
  Emax: 51%
